Results: patent publication US8163793B2, “Proline derivatives” (Hoffman-La Roche Inc., priority 2009, dated 2012)
Where a name gives a salt, the structure may show the parent alone.

Legend:
Cathepsin S = Cathepsin S (UniProt P25774); assay: Cathepsin enzyme inhibition assay (fluorogenic peptide substrate Z-Val-Val-Arg-AMC), Cathepsin S; format: biochemical, human and mouse; conditions: enzyme 1 nM, substrate 20 μM, pH 6.5; read-out: CatS IC50
Summary of the method: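 Human or mouse cathepsin S (1 nM) was run in 100 mM potassium phosphate pH 6.5 with 5 mM EDTA, 0.001% Triton X-100 and 5 mM DTT. The rise in AMC fluorescence from cleavage was measured, and IC50 values were calculated by standard methods and expressed in μM.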

Cat L = Cat L (UniProt P07711); assay: Cathepsin enzyme inhibition assay (fluorogenic peptide substrate Z-Val-Val-Arg-AMC), Cathepsin L; format: biochemical, human and mouse; conditions: enzyme 1 nM, substrate 20 μM, pH 6.5; read-out: CatL IC50
Summary of the method: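 Cathepsin L at 1 nM was mixed with compound, then started with 20 μM Z-Val-Val-Arg-AMC in pH 6.5 potassium phosphate with EDTA, Triton X-100 and 5 mM DTT. AMC fluorescence (ex 360/em 465 nm) was followed over 20 min. IC50 is given in μM.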

Structure (SMILES) | IC50 (Cathepsin S) | IC50 (Cat L)
N#CC1(NC(=O)[C@@H]2C[C@@H](S(=O)(=O)c3ccccc3C(F)(F)F)CN2C(=O)C2CCC(C(F)(F)F)CC2)CC1 (stereo partly drawn) [Example 105, (2S,4R)-4-(2-Trifluoromethyl-benzenesulfonyl)-1-(4-trifluoromethyl-cyclohexanecarbonyl)-pyrrolidine-2-carboxylic acid (1-cyano-cyclopropyl)-amide] | 0.0003 µM | ≥ 25 µM
N#CC1(NC(=O)[C@@H]2C[C@@H](S(=O)(=O)c3ccccc3C(F)(F)F)CN2C(=O)c2ccc(F)cc2)CC1 [Example 106, (2S,4R)-1-(4-Fluoro-benzoyl)-4-(2-trifluoromethyl-benzenesulfonyl)-pyrrolidine-2-carboxylic Acid (1-cyano-cyclopropyl)-amide] | 0.0004 µM | ≥ 25 µM
N#CC1(NC(=O)[C@@H]2C[C@@H](S(=O)(=O)c3ccccc3C(F)(F)F)CN2Cc2ccccc2)CC1 [Example 107, (2S,4R)-1-Benzyl-4-(2-trifluoromethyl-benzenesulfonyl)-pyrrolidine-2-carboxylic acid (1-cyano-cyclopropyl)-amide] | 0.025 µM | 16.6 µM
N#CC1(NC(=O)[C@@H]2C[C@@H](S(=O)(=O)c3ccccc3C(F)(F)F)CN2Cc2ccncc2)CC1 [Example 108, (2S,4R)-1-Pyridin-4-ylmethyl-4-(2-trifluoromethyl-benzenesulfonyl)-pyrrolidine-2-carboxylic Acid (1-cyano-cyclopropyl)-amide] | 0.0058 µM | 47.7 µM
N#CC1(NC(=O)[C@@H]2C[C@@H](S(=O)(=O)c3ccccc3C(F)(F)F)CN2CC(F)(F)C(F)(F)F)CC1 [Example 109, (2S,4R)-1-(2,2,3,3,3-Pentafluoro-propyl)-4-(2-trifluoromethyl-benzenesulfonyl)-pyrrolidine-2-carboxylic acid (1-cyano-cyclopropyl)-amide] | 0.0127 µM | ≥ 25 µM
COCCN1C[C@H](S(=O)(=O)c2ccccc2C(F)(F)F)C[C@H]1C(=O)NC1(C#N)CC1 [Example 110, (2S,4R)-1-(2-Methoxy-ethyl)-4-(2-trifluoromethyl-benzenesulfonyl)-pyrrolidine-2-carboxylic Acid (1-cyano-cyclopropyl)-amide] | 0.0605 µM | ≥ 25 µM
CC(=O)N1C[C@H](S(=O)(=O)c2ccc(-n3cccn3)cc2C(F)(F)F)C[C@H]1C(=O)NC1(C#N)CC1 [Example 111, (2S,4R)-1-Acetyl-4-(4-pyrazol-1-yl-2-trifluoromethyl-benzenesulfonyl)-pyrrolidine-2-carboxylic acid (1-cyano-cyclopropyl)-amide] | 0.0007 µM | ≥ 25 µM
CC(=O)N1C[C@H](S(=O)(=O)c2ccc(-n3ccnc3)cc2C(F)(F)F)C[C@H]1C(=O)NC1(C#N)CC1 [Example 112, (2S,4R)-1-Acetyl-4-(4-imidazol-1-yl-2-trifluoromethyl-benzenesulfonyl)-pyrrolidine-2-carboxylic acid (1-cyano-cyclopropyl)-amide] | 0.0008 µM | ≥ 25 µM
CC(C)CS(=O)(=O)[C@@H]1C[C@@H](C(=O)NC2(C#N)CC2)N(C(=O)OC(C)(C)C)C1 [Example 113, (2S,4R)-2-(1-Cyano-cyclopropylcarbamoyl)-4-(2-methyl-propane-1-sulfonyl)-pyrrolidine-1-carboxylic acid tert-butyl ester] | 3.13 µM | ≥ 25 µM
CC(C)CS(=O)(=O)[C@H]1CN[C@H](C(=O)NC2(C#N)CC2)C1 [Example 114, (2S,4R)-4-(2-Methyl-propane-1-sulfonyl)-pyrrolidine-2-carboxylic acid (1-cyano-cyclopropyl)-amide Hydrochloride] | 3.5 µM | ≥ 25 µM
N#CCNC(=O)C12CC(S(=O)(=O)c3ccccc3)CN1CC(F)(F)C2 (stereo not shown) [Example 115, 6-Benzenesulfonyl-2,2-difluoro-tetrahydro-pyrrolizine-7a-carboxylic acid cyanomethyl-amide] | 0.048 µM | 3.47 µM
N#CCNC(=O)C12CC(F)(F)CN1CCC2S(=O)(=O)c1ccccc1 (stereo not shown) [Example 116, 1-Benzenesulfonyl-6,6-difluoro-tetrahydro-pyrrolizine-7a-carboxylic acid cyanomethyl-amide, diasteromer Δ1] | 0.0355 µM | ≥ 25 µM
N#CCNC(=O)C12CC(F)(F)CN1CCC2S(=O)(=O)c1ccccc1 (stereo not shown) [Example 117, 1-Benzenesulfonyl-6,6-difluoro-tetrahydro-pyrrolizine-7a-carboxylic acid cyanomethyl-amide, diasteromer Δ2] | 0.0865 µM | ≥ 25 µM
COC(=O)c1ccc(C(=O)N2C[C@H](S(=O)(=O)c3ccccc3C(F)(F)F)C[C@H]2C(=O)NC2(C#N)CC2)cc1 [Example 118, 4-[(2S,4R)-2-(1-Cyano-cyclopropylcarbamoyl)-4-(2-trifluoromethyl-benzenesulfonyl)-pyrrolidine-1-carbonyl]-benzoic acid methyl ester] | 0.0009 µM | ≥ 25 µM
CC(C)(C)OC(=O)N1C[C@H](S(=O)(=O)c2ccc(-n3cccn3)cc2Cl)C[C@H]1C(=O)NC1(C#N)CC1 [Example 120, (2S,4R)-4-(2-Chloro-4-pyrazol-1-yl-benzenesulfonyl)-2-(1-cyano-cyclopropylcarbamoyl)-pyrrolidine-1-carboxylic acid tert-butyl ester] | 0.0028 µM | ≥ 25 µM
CC(C)(C)OC(=O)N1C[C@H](S(=O)(=O)c2ccc(N3CCCCC3)cc2Cl)C[C@H]1C(=O)NC1(C#N)CC1 [Example 121, (2S,4R)-4-(2-Chloro-4-piperidin-1-yl-benzenesulfonyl)-2-(1-cyano-cyclopropylcarbamoyl)-pyrrolidine-1-carboxylic acid tert.-butyl ester] | 0.0041 µM | 23.7 µM
CC(Oc1ccc(S(=O)(=O)[C@@H]2C[C@@H](C(=O)NC3(C#N)CC3)N(C(=O)OC(C)(C)C)C2)c(Cl)c1)C(F)(F)F (stereo partly drawn) [Example 122, (2S,4R)-4-[2-Chloro-4-(2,2,2-trifluoro-1-methyl-ethoxy)-benzenesulfonyl]-2-(1-cyano-cyclopropylcarbamoyl)-pyrrolidine-1-carboxylic acid tert.-butyl ester] | 0.0094 µM | 23.8 µM
CC(C)C[C@]1(C(=O)NC2(C#N)CC2)C[C@H](S(C)(=O)=O)[C@@H](c2ccc(F)cc2)N1 [Example 123, (2R,4S,5R)-5-(4-Fluoro-phenyl)-2-isobutyl-4-methanesulfonyl-pyrrolidine-2-carboxylic acid (1-cyano-cyclopropyl)-amide] | 2.61 µM | ≥ 25 µM
CC(C)(C)OC(=O)N1C[C@H](S(=O)(=O)c2ccc(F)cc2Cl)C[C@H]1C(=O)NC1(C#N)CC1 [Example 124, (2S,4R)-4-(2-Chloro-4-fluoro-benzenesulfonyl)-2-(1-cyano-cyclopropylcarbamoyl)-pyrrolidine-1-carboxylic acid tert.-butyl ester] | 0.0125 µM | ≥ 25 µM
CC(C)C[C@]1(C(=O)NC2(C#N)CC2)C[C@H](S(C)(=O)=O)[C@@H](c2ccc(F)cc2)N1C(=O)OC(C)(C)C [Example 125, (2R,4S,5R)-2-(1-Cyano-cyclopropylcarbamoyl)-5-(4-fluoro-phenyl)-2-isobutyl-4-methanesulfonyl-pyrrolidine-1-carboxylic acid tert.-butyl ester] | 0.195 µM | ≥ 25 µM
